The record followed here is patent US20240327364A1, “THERAPEUTIC TARGETING OF GPR68 TO INDUCE FERROPTOSIS” (University Of Maryland, Baltimore, priority 2023, published 2024).

The target in one experiment is T1, ADCK3 (Homo sapiens, UniProt Q8NI60).
T1 construct: purchased DiscoveRx (Fremont, CA)
The experiment is described as follows: KinomeScan. The class given is binding. The settings on record: read-out: % Control.

The target of another experiment is T2, CAMK2B (Homo sapiens, UniProt Q13554).
T2 construct: purchased DiscoveRx (KinomeScan service)
T2 sequence (Q13554 whole entry): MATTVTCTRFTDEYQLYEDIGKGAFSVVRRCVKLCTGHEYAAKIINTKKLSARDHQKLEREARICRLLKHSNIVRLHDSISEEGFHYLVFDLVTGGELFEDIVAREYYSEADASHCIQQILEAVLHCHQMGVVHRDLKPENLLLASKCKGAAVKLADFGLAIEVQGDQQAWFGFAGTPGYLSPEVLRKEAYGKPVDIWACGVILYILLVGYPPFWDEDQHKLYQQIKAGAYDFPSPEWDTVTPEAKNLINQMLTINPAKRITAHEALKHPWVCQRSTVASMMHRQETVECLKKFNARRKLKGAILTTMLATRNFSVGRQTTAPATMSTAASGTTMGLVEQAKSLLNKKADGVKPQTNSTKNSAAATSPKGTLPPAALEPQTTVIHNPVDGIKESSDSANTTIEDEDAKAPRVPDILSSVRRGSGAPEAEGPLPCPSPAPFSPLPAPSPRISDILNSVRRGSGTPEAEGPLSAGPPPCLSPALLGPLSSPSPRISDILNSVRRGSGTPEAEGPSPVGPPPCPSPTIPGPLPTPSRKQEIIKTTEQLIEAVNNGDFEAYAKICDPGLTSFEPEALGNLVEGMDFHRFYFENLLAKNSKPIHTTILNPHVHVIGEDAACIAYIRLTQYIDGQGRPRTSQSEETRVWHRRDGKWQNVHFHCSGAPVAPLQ
Description: KinomeScan. The class given is binding. The settings on record: read-out: % Control.

The target of another experiment is T3, GRK4 (Homo sapiens, UniProt P32298).
T3 construct: purchased DiscoveRx (Fremont, CA)
Description: KinomeScan. The class given is binding. Conditions: read-out: % Control.

The target of the next experiment is T4, S1P1 (Homo sapiens, UniProt P21453).
T4 construct: host or cells: Chem-1 cells with Gα15
T4 sequence (P21453 whole entry, species assumed): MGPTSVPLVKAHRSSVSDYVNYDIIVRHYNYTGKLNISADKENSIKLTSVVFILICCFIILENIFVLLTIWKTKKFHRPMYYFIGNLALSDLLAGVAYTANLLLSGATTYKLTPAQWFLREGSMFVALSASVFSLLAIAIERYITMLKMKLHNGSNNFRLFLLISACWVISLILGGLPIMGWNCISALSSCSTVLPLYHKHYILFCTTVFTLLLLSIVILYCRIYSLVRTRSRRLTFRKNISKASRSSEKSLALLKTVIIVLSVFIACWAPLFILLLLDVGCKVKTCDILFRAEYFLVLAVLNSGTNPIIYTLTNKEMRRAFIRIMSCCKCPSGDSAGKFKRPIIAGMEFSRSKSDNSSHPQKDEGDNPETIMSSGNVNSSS
Description: GPCR Profiler. The class given is cell-based.

Another experiment addresses T5, QSK (Homo sapiens, UniProt Q9Y2K2).
T5 construct: purchased DiscoveRx (Fremont, CA)
The experiment is described as follows: KinomeScan. The class given is binding. The settings on record: read-out: % Control.

A further experiment concerns the target T6, MYLK2 (Homo sapiens, UniProt Q9H1R3).
T6 construct: purchased DiscoveRx
Description: KinomeScan. The class given is binding. Conditions: read-out: % Control.

A further experiment addresses T7, ICK (Homo sapiens, UniProt Q9UPZ9).
T7 construct: purchased DiscoveRx (Fremont, CA)
The experiment is described as follows: KinomeScan. The class given is binding. Conditions: read-out: % Control.

A further experiment addresses T8, ADRB2 (Homo sapiens, UniProt P07550).
T8 construct: host or cells: Chem-1 cells with promiscuous Gα15
Description: GPCR Profiler. The class given is cell-based.

For another experiment, the target named is T9, BRK (Homo sapiens, UniProt Q13882).
T9 construct: purchased DiscoveRx (Fremont, CA)
T9 sequence (Q13882 whole entry): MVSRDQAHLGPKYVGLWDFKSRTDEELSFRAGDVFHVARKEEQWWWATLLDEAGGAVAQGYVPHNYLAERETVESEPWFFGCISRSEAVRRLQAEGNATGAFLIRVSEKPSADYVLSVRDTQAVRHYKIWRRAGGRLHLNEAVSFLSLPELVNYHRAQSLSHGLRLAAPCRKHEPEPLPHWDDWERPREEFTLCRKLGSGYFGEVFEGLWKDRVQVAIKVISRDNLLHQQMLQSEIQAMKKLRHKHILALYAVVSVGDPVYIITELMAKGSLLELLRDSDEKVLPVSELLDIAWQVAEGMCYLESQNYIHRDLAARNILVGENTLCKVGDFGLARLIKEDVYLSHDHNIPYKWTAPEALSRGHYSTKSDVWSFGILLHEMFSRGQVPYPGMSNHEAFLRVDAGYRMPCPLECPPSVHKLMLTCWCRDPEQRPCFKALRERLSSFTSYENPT
Description: KinomeScan. The class given is binding. The settings on record: read-out: % Control.

The target in the next experiment is T10, LIMK2 (Homo sapiens, UniProt P53671).
T10 construct: purchased DiscoveRx
T10 sequence (P53671 whole entry): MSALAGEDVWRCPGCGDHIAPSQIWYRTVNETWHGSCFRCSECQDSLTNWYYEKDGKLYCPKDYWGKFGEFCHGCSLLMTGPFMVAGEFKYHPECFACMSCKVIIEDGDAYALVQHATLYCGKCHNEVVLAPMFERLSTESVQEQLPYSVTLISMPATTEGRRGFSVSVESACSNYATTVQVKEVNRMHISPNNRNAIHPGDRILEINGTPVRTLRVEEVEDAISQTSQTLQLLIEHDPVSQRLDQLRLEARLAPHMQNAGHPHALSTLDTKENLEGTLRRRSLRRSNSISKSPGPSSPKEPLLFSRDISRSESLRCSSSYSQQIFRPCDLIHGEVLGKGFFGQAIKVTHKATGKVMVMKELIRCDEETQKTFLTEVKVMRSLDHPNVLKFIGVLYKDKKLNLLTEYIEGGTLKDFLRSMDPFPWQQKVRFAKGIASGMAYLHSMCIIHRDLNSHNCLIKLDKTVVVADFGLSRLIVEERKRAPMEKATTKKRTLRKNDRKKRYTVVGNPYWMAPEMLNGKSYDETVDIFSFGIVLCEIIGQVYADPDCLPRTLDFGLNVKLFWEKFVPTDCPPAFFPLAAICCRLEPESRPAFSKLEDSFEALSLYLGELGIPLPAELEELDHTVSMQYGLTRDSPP
Description: KinomeScan. The class given is binding. Conditions: read-out: % Control.

Another experiment deals with 158 GPCRs. Description: GPCR profiling panel (summary). The class given is cell-based. Conditions: 10 μM. How it is done: GPCR profiling assays were performed by Millipore (St. Louis, MO) using in cells expressing Gα15, a promiscuous G protein that enhances GPCR coupling to downstream Ca2+ signaling pathways. KinomeScan was conducted by DiscoveRx (Fremont, CA).
Since GPCRs represent >30% of targets for FDA-approved small molecules and are known to modulate cell migration, activity against 158 GPCRs was assessed based on their chemical structures. GPCRs (158) were tested for agonist and antagonist activity at 10 μM. […] Chemical segregation analysis of zebrafish phenotype was conducted to further identify the inhibitory activity responsible for the zebrafish phenotype. […] The identities of the R groups in Formula A are shown below in Table 5.
To identify the target of OGM1, the molecule was profiled for binding in a panel of 442 kinases (KinomeScan™, DiscoveRx™) and assessed its activity against 158 GPCRs in a single-point assay in Chem-1 cells that uses a promiscuous Gα15 protein to trigger calcium flux (see Table 9 and Table 10, below). […] Table 9. KinomeScan (DiscoverRx) profiling of OGM1.

Another experiment has as its target T11, ARK5 (Homo sapiens, UniProt O60285).
T11 construct: purchased DiscoveRx (Fremont, CA)
The experiment is described as follows: KinomeScan. The class given is binding. Conditions: read-out: % Control.

Another experiment concerns the target T12, RIPK1 (Homo sapiens, UniProt Q13546).
T12 construct: purchased DiscoveRx (Fremont, CA)
The experiment is described as follows: KinomeScan. The class given is binding. Conditions: read-out: % Control.

The next experiment has as its target T13, MEK4 (Homo sapiens, UniProt P45985).
T13 construct: purchased DiscoveRx (Fremont, CA)
The experiment is described as follows: KinomeScan. The class given is binding. Conditions: read-out: % Control.

For a further experiment, the target named is T14, LRRK2(G2019S) (Homo sapiens, UniProt Q5S007, G2019S).
T14 construct: purchased DiscoveRx
The experiment is described as follows: KinomeScan. The class given is binding. Conditions: read-out: % Control.

The subject of the next experiment is PDX 08-387 cells. Description: Cell survival, OGM2 with TMZ. The class given is cell-based, human. The settings on record: OGM2 and TMZ, cell killing. Here is the method:
GBM neurospheres and low passage PDX models were plated in 96-well plates at 10,000 cells per well in 50 μL of neural stem cell media. The next day, the cells were treated with OGM2 compounds at the indicated concentrations, in triplicates, by adding an equal volume of medium containing 2× the final concentration of compound. Following 72 hours incubation under standard cell culture conditions, relative cell number was assessed using Cell Titer-Glo Luminescent Cell Viability Assay (Promega™) following the manufacturer's instructions. Luminescence was determined using a Cytation 5 reader and Gen5 software package (BioTek™). For U87 and U138 cell lines, one thousand cells were plated per well in a standard 96-well plate and allowed to attach for 24 hours before exposure to concentrations of vehicle, OGM2, or TMZ. Cells were treated for 72 hours and then stained with DAPI. A 10× magnification lens on a LionheartFX (BioTek™) was used to image the wells, and images were stitched together with Gen5 software (BioTek™). Automated nuclei counting was also done using the Gen5 software. Results reported as percent response relative to DMSO control. […]
Where appropriate, ANOVA, or student's T-test were conducted in PRISM. […] For drug interaction and therapeutic interaction, the coefficient of drug interaction (CDI) was calculated as follows: CDI=AB/(A×B). […]

In the next experiment the test system is U87. The experiment is described as follows: Western blot (TFRC, HO-1, cleaved caspase 3). The class given is cell-based, human. How it is done:
Using Pierce™ BCA Protein Assay Kit (ThermoFisher Scientific™), protein concentrations were determined for each sample following manufacturing protocol. Gel electrophoresis was conducted on NuPAGE™ 4-12% Bis-Tris gels (Invitrogen™) using 20 ug of total protein per sample. Proteins were transferred to PVDF membranes by semi-dry transfer. Membranes were blocked using Intercept® (PBS) Blocking Buffer (LI-COR™) for one hour at room temperature on a tilting shaker. Primary antibodies in 5% non-fat dry milk were added to the membranes for overnight incubation at 4° C. on a rotating shaker. Primary antibodies included transferrin receptor (TFRC), heme-oxygenase 1 (HO-1), and cleaved caspase 3 with GAPDH and α-tubulin used as normalization controls. The next day, membranes were washed in three, five-minute intervals with PBST (Tween 0.5%). Corresponding secondary HRP-conjugated antibodies in 5% non-fat dry milk were added to incubate at room temperature for one hour on a tilting shaker. The membranes were washed with PBST in four, five-minute intervals before protein visualization using Radiance Q (Azure Biosystems™) on Bio-Rad™ ChemiDoc™ MP Imaging System. Protein quantification was completed in triplicate using Fiji software package.
(In western blotting, separated proteins are transferred to a membrane and probed.)

T8 sequence (P07550 whole entry, species assumed): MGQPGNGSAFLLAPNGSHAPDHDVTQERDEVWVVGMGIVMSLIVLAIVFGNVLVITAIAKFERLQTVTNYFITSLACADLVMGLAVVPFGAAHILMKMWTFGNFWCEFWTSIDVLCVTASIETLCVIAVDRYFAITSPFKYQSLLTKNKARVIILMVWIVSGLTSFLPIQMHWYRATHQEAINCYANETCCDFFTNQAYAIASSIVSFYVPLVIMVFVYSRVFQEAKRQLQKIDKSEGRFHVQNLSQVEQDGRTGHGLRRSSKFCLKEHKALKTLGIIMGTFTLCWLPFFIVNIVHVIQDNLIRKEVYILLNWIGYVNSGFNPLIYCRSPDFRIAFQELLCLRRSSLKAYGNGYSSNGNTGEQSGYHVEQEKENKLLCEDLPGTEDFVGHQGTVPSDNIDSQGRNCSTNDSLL
T5 sequence (Q9Y2K2 whole entry): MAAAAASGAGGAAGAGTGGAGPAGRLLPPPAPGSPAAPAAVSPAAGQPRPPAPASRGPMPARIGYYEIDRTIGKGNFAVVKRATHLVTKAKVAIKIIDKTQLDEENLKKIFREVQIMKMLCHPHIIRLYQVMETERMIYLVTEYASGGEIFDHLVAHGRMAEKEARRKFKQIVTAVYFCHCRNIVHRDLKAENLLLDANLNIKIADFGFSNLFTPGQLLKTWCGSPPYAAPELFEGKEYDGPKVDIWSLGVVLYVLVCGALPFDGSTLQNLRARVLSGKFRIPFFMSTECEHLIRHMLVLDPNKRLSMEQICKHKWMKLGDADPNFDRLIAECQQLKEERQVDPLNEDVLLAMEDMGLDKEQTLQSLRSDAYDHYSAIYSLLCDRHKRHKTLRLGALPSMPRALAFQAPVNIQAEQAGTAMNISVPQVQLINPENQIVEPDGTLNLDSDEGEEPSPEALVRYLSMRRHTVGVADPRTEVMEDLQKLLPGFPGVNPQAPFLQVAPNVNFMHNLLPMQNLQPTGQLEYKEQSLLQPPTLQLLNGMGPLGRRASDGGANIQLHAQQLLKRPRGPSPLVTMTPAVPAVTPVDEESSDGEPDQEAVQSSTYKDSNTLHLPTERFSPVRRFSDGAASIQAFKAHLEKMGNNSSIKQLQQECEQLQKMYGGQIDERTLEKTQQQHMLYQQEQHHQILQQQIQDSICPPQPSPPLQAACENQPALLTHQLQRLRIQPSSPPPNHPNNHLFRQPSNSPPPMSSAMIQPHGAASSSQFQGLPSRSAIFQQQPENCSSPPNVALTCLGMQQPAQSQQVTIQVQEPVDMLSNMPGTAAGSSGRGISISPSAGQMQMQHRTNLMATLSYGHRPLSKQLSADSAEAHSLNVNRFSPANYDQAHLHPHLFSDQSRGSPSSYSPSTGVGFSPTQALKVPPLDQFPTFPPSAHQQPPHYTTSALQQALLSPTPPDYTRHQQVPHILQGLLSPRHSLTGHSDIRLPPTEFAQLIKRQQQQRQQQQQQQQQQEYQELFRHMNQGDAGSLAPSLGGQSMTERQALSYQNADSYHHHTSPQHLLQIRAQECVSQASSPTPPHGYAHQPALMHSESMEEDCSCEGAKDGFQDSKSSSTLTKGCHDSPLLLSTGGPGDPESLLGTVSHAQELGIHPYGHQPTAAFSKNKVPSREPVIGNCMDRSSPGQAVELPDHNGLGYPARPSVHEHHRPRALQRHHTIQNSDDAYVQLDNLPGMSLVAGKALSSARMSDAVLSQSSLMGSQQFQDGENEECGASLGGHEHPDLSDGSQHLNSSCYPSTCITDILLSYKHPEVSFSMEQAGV
T1 sequence (Q8NI60 163-647): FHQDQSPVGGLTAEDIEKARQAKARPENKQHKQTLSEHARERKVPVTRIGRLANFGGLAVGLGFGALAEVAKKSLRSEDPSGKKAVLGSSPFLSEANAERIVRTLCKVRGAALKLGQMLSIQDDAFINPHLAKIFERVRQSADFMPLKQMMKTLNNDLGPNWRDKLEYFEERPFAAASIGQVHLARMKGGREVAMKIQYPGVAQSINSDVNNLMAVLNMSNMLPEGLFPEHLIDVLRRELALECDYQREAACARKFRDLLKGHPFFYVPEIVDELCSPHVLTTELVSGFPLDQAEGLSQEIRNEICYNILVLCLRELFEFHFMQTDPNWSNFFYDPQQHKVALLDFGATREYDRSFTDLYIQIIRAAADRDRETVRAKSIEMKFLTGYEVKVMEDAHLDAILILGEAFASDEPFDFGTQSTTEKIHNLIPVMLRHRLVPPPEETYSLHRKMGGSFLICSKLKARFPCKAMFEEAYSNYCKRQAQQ
T12 sequence (Q13546 whole entry): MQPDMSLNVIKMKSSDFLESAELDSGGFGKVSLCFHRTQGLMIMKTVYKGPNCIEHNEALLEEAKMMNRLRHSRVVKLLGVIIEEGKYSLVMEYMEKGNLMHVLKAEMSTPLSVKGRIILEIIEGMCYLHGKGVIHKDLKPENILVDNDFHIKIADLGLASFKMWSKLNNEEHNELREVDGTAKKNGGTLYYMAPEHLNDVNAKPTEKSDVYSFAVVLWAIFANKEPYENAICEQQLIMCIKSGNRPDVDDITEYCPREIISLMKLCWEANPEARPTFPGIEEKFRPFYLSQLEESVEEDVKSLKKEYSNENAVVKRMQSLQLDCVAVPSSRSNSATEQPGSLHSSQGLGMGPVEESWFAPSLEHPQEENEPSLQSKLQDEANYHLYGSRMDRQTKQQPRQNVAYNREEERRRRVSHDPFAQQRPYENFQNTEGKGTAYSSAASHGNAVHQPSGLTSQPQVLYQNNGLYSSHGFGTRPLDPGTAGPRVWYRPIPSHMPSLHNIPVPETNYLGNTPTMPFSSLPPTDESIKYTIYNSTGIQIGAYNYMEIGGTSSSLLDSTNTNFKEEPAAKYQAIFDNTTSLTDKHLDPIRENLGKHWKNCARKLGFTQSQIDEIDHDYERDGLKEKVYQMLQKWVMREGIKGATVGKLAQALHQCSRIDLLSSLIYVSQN

For `CCc1ccc2c(c1)C1(NN=C(c3cccc4ccccc34)S1)C(=O)N2` (centres unmarked) [OGM1, 5-ethyl-5′-naphthalen-1-ylspiro[1H-indole-3,2′-3H-1,3,4-thiadiazole]-2-one], the remaining binding at 10 µM on ADCK3 was found to be 100%; at CAMK2B it was 60%; at GRK4, 96%; at QSK, 100%; at MYLK2 it was 100%; on ICK, 81%. Also, the remaining binding at 10 µM was found to be 100% on BRK; 100% at LIMK2; 80% on ARK5; 100% at RIPK1; 100% on MEK4; 100% on LRRK2(G2019S). In addition, the Antagonism on S1P1 (10 uM) is recorded as 3.1; on ADRB2 (10 uM), −9.5. Also, the Agonism on S1P1 (12.5 uM) is listed as −0.4; on ADRB2 (12.5 uM) it was −0.1. Also, the GPCRs significantly inhibited result in the experiment on 158 GPCRs was “significantly inhibited only the lysophosphatidic acid receptor 1 (LPAR1), and extracellular proton-sensing GPR68/OGR1”.
Consider `CCc1ccc2c(c1)C1(NN=C(c3ccccc3)S1)C(=O)N2` (centres unmarked) [OGM2], for which the “coefficient of drug interaction (CDI)” value with PDX 08-387 cells was below 0.7. Moreover, in the experiment with U87, the “cleaved caspase 3 level” value was “did not increase”; the “protein levels of TFRC and HO-1” value was “significantly increased”.
